Where two headings read alike, the source gives them in different places.
Legend:
CHO.DXB11 cells [1] = conditions: fed once daily, range 0.1% to 0.4% v/v
Experimental: Ethanol cytotoxicity to CHO.DXB11 cells was determined by daily feed dosing. 4 mL of CHO cells at 3 e6/mL cellular density were seeded into 6 well deep plates, mixed at 150 RPM, and fed once daily with ethanol ranging from 0.1% to 0.4% volume to volume (v/v).

CHO.DXB11 derived clone = conditions: ethanol 0.057% v/v fed daily vs baseline, 12 day fed-batch, mAb1
Experimental: To determine if ethanol altered mAb properties it was incorporated into fully defined and synthetic feed media and fed daily in a fed-batch process using micro—(15 mL working volume) bioreactors.
(§1) Antibody production was performed as described above for mAb 1.
Cell line A is a CHO.DXB11 derived clone producing mAb 1. Cell line B is a different CHO.DXB11 derived clone producing mAb1. The expression cassette is identical between the two cell lines.
(§2) Ethanol was fed daily 0.0% or 0.057% v/v using microscale bioreactors and two different cellular clones producing mAb1. Calculated cumulative cell culture concentration (concentration in vessel at time of cell harvest) of ethanol ranged between 0.0%-0.51% v/v. Bioreactor physical conditions were maintained at a pH of 7.0±0.2, dissolved oxygen at 30% air saturation and a temperature of 35° C. during logarithmic cellular growth phase and shifted to 31° C. during cellular production phase (temperature was shifted one day before max viable cell density was reached). Basal and feed media were fully synthetic and chemically defined containing no animal derived components.

CHO.DXB11 cells [2] = conditions: 12 day fed-batch, prediction profile
Text: Ethanol was used in design of experiments (DOE) created with custom DOE design using JMP statistical software (World Wide Web.jmp.com/en_us/home.html). A response model was created using standard least squares to determine the significance of response from ethanol supplementation. Potential interactions with other supplemented components were also considered. Ethanol was fed daily between 0.0% and 0.1% using microscale bioreactors. FIG. 9 is a prediction response profile for Titer, Man5%, G0%, Acidic % and Basic % species while the change in response values for each of these is shown depicted in Table 4 below.

CHO.DXB11 cells [3] = conditions: high ethanol 0.144% v/v vs low ethanol 0.072% v/v fed daily, 14 day fed-batch, mAb 1
Experimental: as §1
as §2, with “0.072% (Low Ethanol)” for “0.0%”, “0.144% (High Ethanol) v/v.” for “0.057% v/v using microscale bioreactors and two different cellular clones producing mAb1.”, “0.79%-1.58%” for “0.0%-0.51%”, “oxygen maintained” for “oxygen”, “30% of” for “30%”, “saturation,” for “saturation and a”

CHO.DXB11 cells [4] = conditions: 14 day fed-batch
Experimental: as §1
(§3) Ethanol was fed daily between 0.0% and 0.018% v/v. Calculated cumulative cell culture concentration (concentration in vessel at time of cell harvest) of ethanol ranged between 0.0%-0.2% v/v. Bioreactor physical conditions were maintained at a pH of 7.0±0.2 shifted to 6.8±0.1, dissolved oxygen maintained at 30% air saturation and a constant temperature of 35° C. Basal and feed media were fully synthetic and chemically defined containing no animal derived components.
The same basal media was used in formulation #1 and #2. Feed formulation #1 and #2 were similar in composition containing the same type and amount of amino acids and vitamins. Salt and metal ion type and concentration were slightly varied. Both feeds were fully synthetic and chemically defined containing no animal derived components.

CHO.DG44 derived clone = conditions: higher ethanol concentrations (0.05%, 0.15% v/v fed daily) vs baseline, 13 day fed-batch, mAb 2
Experimental: Antibody production was performed as described above for mAb 2. This cell line is a CHO.DG44 derived clone producing mAb 2.
as §3, with “0.15%” for “0.018%”, “0.0%-1.35%” for “0.0%-0.2%”, “7.0±0.1” for “7.0±0.2”

CHO.DXB11 cells [5] = experiment: Fatty acid cytotoxicity, daily feed dosing; conditions: solubilized in ethanol, fed once daily, 10 μM to 160 μM
Experimental: Fatty acid cytotoxicity to CHO.DXB11 cells was determined by daily feed dosing. 4 mL of CHO cells at 4 e^6/mL cellular density were seeded into 6 well deep plates, mixed at 150 RPM, and daily fed fatty acids. Fatty acids were solubilized in ethanol and fed once daily to increase well plate concentration from 10 μM to 160 μM.

[6] = Formulation 1, ethanol 0.018% v/v fed daily vs baseline lacking ethanol
[7] = Formulation 2, ethanol 0.018% v/v fed daily vs baseline lacking ethanol

SMILES: CCO [Ethanol, ethanol]
- Daily ethanol feeding above which cell growth rate and cell viability were negatively affected (CHO.DXB11 cells [1]): exceeded 0.3 % v/v
- Effect on G1F % glycan species (CHO.DXB11 derived clone; both cell lines (A and B)): increased
- Effect on G2F % glycan species (CHO.DXB11 derived clone; both cell lines (A and B)): increased
- Effect on Man5% glycan species (CHO.DXB11 derived clone; both cell lines (A and B)): decreased
- Effect on relative amount of acidic charge variants (CHO.DXB11 derived clone; both cell lines (A and B)): decreased
- Effect on relative percentage of basic charge variants (CHO.DXB11 derived clone; both cell lines (A and B)): slightly increasing
- Effect on G0% glycan species (CHO.DXB11 derived clone; cell lines A and B): varied with respect to the cell line
- Effect on G0F % glycan species (CHO.DXB11 derived clone; cell lines A and B): varied with respect to the cell line
- Change in Acidic % (CHO.DXB11 cells [2]; 0.05% v/v ethanol fed daily): −4.7%
- Change in Basic % (CHO.DXB11 cells [2]; 0.05% v/v ethanol fed daily): +1.0%
- Change in G0% (CHO.DXB11 cells [2]; 0.05% v/v ethanol fed daily): −0.7%
- Change in Man5% (CHO.DXB11 cells [2]; 0.05% v/v ethanol fed daily): −1.9%
- Change in Titer (CHO.DXB11 cells [2]; 0.05% v/v ethanol fed daily): +2.0%
- Change in Acidic % (CHO.DXB11 cells [2]; 0.1% v/v ethanol fed daily): −9.3%
- Change in Basic % (CHO.DXB11 cells [2]; 0.1% v/v ethanol fed daily): +1.9%
- Change in G0% (CHO.DXB11 cells [2]; 0.1% v/v ethanol fed daily): −1.3%
- Change in Man5% (CHO.DXB11 cells [2]; 0.1% v/v ethanol fed daily): −3.8%
- Change in Titer (CHO.DXB11 cells [2]; 0.1% v/v ethanol fed daily): +3.9%
- Effect on G0 glycan species (CHO.DXB11 cells [3]): less
- Effect on G1F glycan species (CHO.DXB11 cells [3]): greater
- Effect on G2F glycan species (CHO.DXB11 cells [3]): greater
- Effect on Man5 glycan species (CHO.DXB11 cells [3]): less
- Effect on high molecular weight species (CHO.DXB11 cells [3]): less
- Effect on low molecular weight species (CHO.DXB11 cells [3]): less
- Effect on G0F glycan species (CHO.DXB11 cells [4]; [6]): less
- Effect on G0 glycan species (CHO.DXB11 cells [4]; [6]): less
- Effect on G1F glycan species (CHO.DXB11 cells [4]; [6]): increased
- Effect on G2F glycan species (CHO.DXB11 cells [4]; [6]): increased
- Effect on Man5 glycan species (CHO.DXB11 cells [4]; [6]): increased
- Effect on acidic charge variants (CHO.DXB11 cells [4]; [6]): less
- Effect on basic charge variants (CHO.DXB11 cells [4]; [6]): increased
- Effect on G0F glycan species (CHO.DXB11 cells [4]; [7]): greater
- Effect on G0 glycan species (CHO.DXB11 cells [4]; [7]): decreased
- Effect on G1F glycan species (CHO.DXB11 cells [4]; [7]): decreased
- Effect on G2F glycan species (CHO.DXB11 cells [4]; [7]): greater
- Effect on Man5 glycan species (CHO.DXB11 cells [4]; [7]): decreased
- Effect on acidic charge variants (CHO.DXB11 cells [4]; [7]): higher
- Effect on G0F glycan species (CHO.DG44 derived clone): decreased
- Effect on G0 glycan species (CHO.DG44 derived clone): increased
- Effect on G1F glycan species (CHO.DG44 derived clone): increased
- Effect on G2F glycan species (CHO.DG44 derived clone): increased
- Effect on Man5 glycan species (CHO.DG44 derived clone): decreased
- Effect on high molecular weight species (CHO.DG44 derived clone): decreased

SMILES: CC/C=C\C/C=C\C/C=C\CCCCCCCC(=O)O [linolenic acid]
- Daily feeding concentration at which the supplement became toxic (CHO.DXB11 cells [5]): around 40 μM

From US10703800B2, “Cell culture medium” (La Jolla Biologics, Inc., priority 2016, dated 2020)
